Measurements: patent publication US20090311237A1, “Combination therapy using a soluble hyaluronidase and a bisphosphonate” (priority 2008, published 2009)
Read-outs that look alike come from different tables or passages of the source.

Test: Pharmacokinetics of ZA in pig serum after IV or SC infusion with or without rHuPH20 (LC-MS-MS, non-compartmental analysis)
Format: in vivo
Procedure: A pharmacokinetic study of zoledronic acid (ZA) co-administered with rHuPH20 in female Yorkshire swines was conducted. The primary objective of the study was to determine the bioavailability of zoledronic acid dosed via subcutaneous (SC) co-administration with human recombinant hyaluronidase PH20 (rHuPH20) and to compare the overall exposure to an equivalent IV dose.
Animals in Study Group 1 were dosed with 0.15 mg/kg ZA given via a 20-minute IV infusion. Animals in Study Groups 2 and 3 were dosed subcutaneously (SC) with 0.15 mg/kg ZA without and with rHuPH20, respectively, in different SC delivery volumes.
Following ZA dose administration, serial blood samples were collected via vascular access ports (VAPs) for serum preparation and determination of ZA concentrations. Blood collection times were at 1, 3, 5, 10, 15, 20, 30, 45, and 60 minutes, and at 1.5, 2, 3, 4, 6, 8, 10, 24, 48, and 72 hours post dose. Urine samples were also collected to compare excretion characteristics between IV and SC routes of administration. Collection times for urine were at 15 minutes before dosing (−15 min.), continuously from dose initiation to 2 hours post dose, and at 4, 6, 8, and 24 hours post dose thereafter.
Serum concentration of ZA was determined using a qualified LC-MS-MS assay after derivatization with diazomethane (Zhu, L S et al. (2006) Rapid Commun. Mass Spectrom. 20: 3421-3426; “Qualification Data of An LC-MS/MS Method for the Determination of Zoledronate in Porcine Serum”, MDS Pharma Services Study No. AA43671-01, Report Date 14 Sep. 2007). The assay range was from 2.0 to 400 ng/mL with a lower limit of quantitation (LLOQ) at 2.0 ng/mL. Urine concentration of ZA was determined by a similar well qualified LC-MS-MS method (“Qualification Data of An LC-MS/MS Method for the Determination of Zoledronate in Porcine Urine”, MDS Pharma Services Study No. AA43671-02, Report Date 14 Sep. 2007) with an assay LLOQ at 10 ng/mL.
Pharmacokinetic (PK) analyses of ZA serum concentration versus time data were conducted using WinNonlin v5.1 (Pharsight, Mountain View, Calif.). Non-compartmental analysis was used for derivation of primary and secondary pharmacokinetic (PK) parameters. AUC, Cmax, and Tmax were compared between dose routes, between co-administration with rHuPH20, and with dose of rHuPH20.

[1] = female, Yorkshire, pig, serum, subcutaneous, […], pig 66, Study Group 3, SC, ZA […], rHuPH20 10000 U/mL, 100 mL over 16 min, read-out: Zoledronic Acid Serum Concentration
[2] = female, Yorkshire, pig, serum, subcutaneous, […], pig 68, Study Group 3, SC, ZA […], rHuPH20 10000 U/mL, 10 mL over 1.6 min, read-out: Zoledronic Acid Serum Concentration
[3] = female, Yorkshire, pig, serum, subcutaneous, pig 56, Study Group 3, SC, ZA […], rHuPH20 10000 U/mL, 25 mL over 4 min, read-out: Zoledronic Acid Serum Concentration
[4] = female, Yorkshire, pig, serum, subcutaneous, pig 58, Study Group 3, SC, ZA […], rHuPH20 10000 U/mL, 50 mL over 8 min, read-out: Zoledronic Acid Serum Concentration
[5] = female, Yorkshire, pig, serum, subcutaneous, pig 68, Study Group 3, SC, ZA […], rHuPH20 10000 U/mL, 10 mL over 1.6 min, read-out: Zoledronic Acid Serum Concentration

## O=P(O)(O)C(O)(Cn1ccnc1)P(=O)(O)O [ZA, 1-hydroxy-2-(1H-imidazol-1-yl)ethylidene-1,1-bisphosphonic acid]
female, Yorkshire, pig, serum, subcutaneous, […], pig 64, Study Group 3, SC, ZA […], rHuPH20 10000 U/mL, 100 mL over 16 min, read-out: Zoledronic Acid Serum Concentration
  concentration at 4 h: 19 ng/mL
female, Yorkshire, pig, serum, subcutaneous, […], pig 64, Study Group 3, SC, ZA […], rHuPH20 10000 U/mL, 100 mL over 16 min, time 6 h, read-out: Zoledronic Acid Serum Concentration
  concentration at 6 h: 5.75 ng/mL
[1]
  concentration at 0.05 h: 12 ng/mL
  concentration at 0.333 h: 103 ng/mL
  concentration at 0.5 h: 78.2 ng/mL
  concentration at 1 h: 53.3 ng/mL
  concentration at 2 h: 23.2 ng/mL
  concentration at 3 h: 11.4 ng/mL
  concentration at 4 h: 6.39 ng/mL
[2]
  concentration at 0.05 h: 342 ng/mL
  concentration at 0.333 h: 201 ng/mL
  concentration at 0.5 h: 175 ng/mL
[3]
  concentration at 0.05 h: 101 ng/mL
  concentration at 0.333 h: 235 ng/mL
  concentration at 0.5 h: 194 ng/mL
  concentration at 1 h: 128 ng/mL
  concentration at 2 h: 59.7 ng/mL
  concentration at 3 h: 31.2 ng/mL
  concentration at 4 h: 17.6 ng/mL
female, Yorkshire, pig, serum, subcutaneous, pig 56, Study Group 3, SC, ZA […], rHuPH20 10000 U/mL, 25 mL over 4 min, time 5 h, read-out: Zoledronic Acid Serum Concentration
  concentration at 5 h: 19.6 ng/mL
female, Yorkshire, pig, serum, subcutaneous, pig 56, Study Group 3, SC, ZA […], rHuPH20 10000 U/mL, 25 mL over 4 min, time 6 h, read-out: Zoledronic Acid Serum Concentration
  concentration at 6 h: 7.21 ng/mL
female, Yorkshire, pig, serum, subcutaneous, pig 56, Study Group 3, SC, ZA […], rHuPH20 10000 U/mL, 25 mL over 4 min, time 8 h, read-out: Zoledronic Acid Serum Concentration
  concentration at 8 h: 2.28 ng/mL
[4]
  concentration at 0.05 h: 73.8 ng/mL
  concentration at 0.333 h: 270 ng/mL
  concentration at 0.5 h: 177 ng/mL
  concentration at 1 h: 107 ng/mL
[5]
  concentration at 1 h: 90.6 ng/mL
  concentration at 2 h: 43.2 ng/mL
  concentration at 3 h: 17 ng/mL
  concentration at 4 h: 7.09 ng/mL
female, Yorkshire, pig, serum, subcutaneous, pig 68, Study Group 3, SC, ZA […], rHuPH20 10000 U/mL, 10 mL over 1.6 min, time 6 h, read-out: Zoledronic Acid Serum Concentration
  concentration at 6 h: 2.68 ng/mL
female, Yorkshire, pig, serum, subcutaneous, pig 68, Study Group 3, SC, ZA […], rHuPH20 10000 U/mL, 10 mL over 1.6 min, time […], read-out: Zoledronic Acid Serum Concentration
  concentration at […]: 50.5 ng/mL
Pig 56, Study Group 3, SC, ZA […], rHuPH20 10000 U/mL, 25 mL over 4 min, time 10 h
  Zoledronic Acid Serum Concentration: BLQ^a (below assay limit of quantification (2.0 ng/mL))
Pig 56, Study Group 3, SC, ZA […], rHuPH20 10000 U/mL, 25 mL over 4 min, time 24 h
  Zoledronic Acid Serum Concentration: BLQ (below assay limit of quantification (2.0 ng/mL))
Pig 56, Study Group 3, SC, ZA […], rHuPH20 10000 U/mL, 25 mL over 4 min, time 48 h
  Zoledronic Acid Serum Concentration: BLQ (below assay limit of quantification (2.0 ng/mL))
Pig 56, Study Group 3, SC, ZA […], rHuPH20 10000 U/mL, 25 mL over 4 min, time 72 h
  Zoledronic Acid Serum Concentration: BLQ (below assay limit of quantification (2.0 ng/mL))
Pig 56, Study Group 3, SC, ZA […], rHuPH20 10000 U/mL, 25 mL over 4 min, time […]
  Zoledronic Acid Serum Concentration: BLQ (below assay limit of quantification (2.0 ng/mL))
Pig 58, Study Group 3, SC, ZA […], rHuPH20 10000 U/mL, 50 mL over 8 min, time 8 h
  Zoledronic Acid Serum Concentration: BLQ (below assay limit of quantification (2.0 ng/mL))
Pig 58, Study Group 3, SC, ZA […], rHuPH20 10000 U/mL, 50 mL over 8 min, time 10 h
  Zoledronic Acid Serum Concentration: BLQ (below assay limit of quantification (2.0 ng/mL))
Pig 58, Study Group 3, SC, ZA […], rHuPH20 10000 U/mL, 50 mL over 8 min, time 24 h
  Zoledronic Acid Serum Concentration: BLQ (below assay limit of quantification (2.0 ng/mL))
Pig 58, Study Group 3, SC, ZA […], rHuPH20 10000 U/mL, 50 mL over 8 min, time 48 h
  Zoledronic Acid Serum Concentration: BLQ (below assay limit of quantification (2.0 ng/mL))
Pig 58, Study Group 3, SC, ZA […], rHuPH20 10000 U/mL, 50 mL over 8 min, time 72 h
  Zoledronic Acid Serum Concentration: BLQ (below assay limit of quantification (2.0 ng/mL))
Pig 58, Study Group 3, SC, ZA […], rHuPH20 10000 U/mL, 50 mL over 8 min, time […]
  Zoledronic Acid Serum Concentration: BLQ (below assay limit of quantification (2.0 ng/mL))
Pig 64, Study Group 3, SC, ZA […], rHuPH20 10000 U/mL, 100 mL over 16 min, time 8 h
  Zoledronic Acid Serum Concentration: BLQ (below assay limit of quantification (2.0 ng/mL))
Pig 64, Study Group 3, SC, ZA […], rHuPH20 10000 U/mL, 100 mL over 16 min, time 10 h
  Zoledronic Acid Serum Concentration: BLQ (below assay limit of quantification (2.0 ng/mL))
Pig 64, Study Group 3, SC, ZA […], rHuPH20 10000 U/mL, 100 mL over 16 min, time 24 h
  Zoledronic Acid Serum Concentration: BLQ (below assay limit of quantification (2.0 ng/mL))
Pig 64, Study Group 3, SC, ZA […], rHuPH20 10000 U/mL, 100 mL over 16 min, time 48 h
  Zoledronic Acid Serum Concentration: BLQ (below assay limit of quantification (2.0 ng/mL))
Pig 64, Study Group 3, SC, ZA […], rHuPH20 10000 U/mL, 100 mL over 16 min, time 72 h
  Zoledronic Acid Serum Concentration: BLQ (below assay limit of quantification (2.0 ng/mL))
Pig 64, Study Group 3, SC, ZA […], rHuPH20 10000 U/mL, 100 mL over 16 min, time […]
  Zoledronic Acid Serum Concentration: BLQ (below assay limit of quantification (2.0 ng/mL))
Pig 66, Study Group 3, SC, ZA […], rHuPH20 10000 U/mL, 100 mL over 16 min, time 6 h
  Zoledronic Acid Serum Concentration: BLQ (below assay limit of quantification (2.0 ng/mL))
Pig 66, Study Group 3, SC, ZA […], rHuPH20 10000 U/mL, 100 mL over 16 min, time 8 h
  Zoledronic Acid Serum Concentration: BLQ (below assay limit of quantification (2.0 ng/mL))
Pig 66, Study Group 3, SC, ZA […], rHuPH20 10000 U/mL, 100 mL over 16 min, time 10 h
  Zoledronic Acid Serum Concentration: BLQ (below assay limit of quantification (2.0 ng/mL))
Pig 66, Study Group 3, SC, ZA […], rHuPH20 10000 U/mL, 100 mL over 16 min, time 24 h
  Zoledronic Acid Serum Concentration: BLQ (below assay limit of quantification (2.0 ng/mL))
Pig 66, Study Group 3, SC, ZA […], rHuPH20 10000 U/mL, 100 mL over 16 min, time 48 h
  Zoledronic Acid Serum Concentration: BLQ (below assay limit of quantification (2.0 ng/mL))
Pig 66, Study Group 3, SC, ZA […], rHuPH20 10000 U/mL, 100 mL over 16 min, time 72 h
  Zoledronic Acid Serum Concentration: BLQ (below assay limit of quantification (2.0 ng/mL))
Pig 66, Study Group 3, SC, ZA […], rHuPH20 10000 U/mL, 100 mL over 16 min, time […]
  Zoledronic Acid Serum Concentration: BLQ (below assay limit of quantification (2.0 ng/mL))
Pig 68, Study Group 3, SC, ZA […], rHuPH20 10000 U/mL, 10 mL over 1.6 min, time 8 h
  Zoledronic Acid Serum Concentration: BLQ (below assay limit of quantification (2.0 ng/mL))
Pig 68, Study Group 3, SC, ZA […], rHuPH20 10000 U/mL, 10 mL over 1.6 min, time 10 h
  Zoledronic Acid Serum Concentration: BLQ (below assay limit of quantification (2.0 ng/mL))
Pig 68, Study Group 3, SC, ZA […], rHuPH20 10000 U/mL, 10 mL over 1.6 min, time 24 h
  Zoledronic Acid Serum Concentration: BLQ (below assay limit of quantification (2.0 ng/mL))
Pig 68, Study Group 3, SC, ZA […], rHuPH20 10000 U/mL, 10 mL over 1.6 min, time 48 h
  Zoledronic Acid Serum Concentration: BLQ (below assay limit of quantification (2.0 ng/mL))
Pig 68, Study Group 3, SC, ZA […], rHuPH20 10000 U/mL, 10 mL over 1.6 min, time 72 h
  Zoledronic Acid Serum Concentration: BLQ (below assay limit of quantification (2.0 ng/mL))
Pig 68, Study Group 3, SC, ZA […], rHuPH20 10000 U/mL, 10 mL over 1.6 min, time […]
  Zoledronic Acid Serum Concentration: BLQ (below assay limit of quantification (2.0 ng/mL))
pig, ZA […] 20-min IV infusion, individual pigs 57, 61, 67
  T½ λz: 46.8 min
